Laboratory results published in ChEMBL document CHEMBL3885861, “Open TG-GATES”.

Species on record: Rattus norvegicus
Experiment: Open TG-GATES - Regimen: Daily Repeat
Assay type: toxicity, organism-based, Sprague-Dawley
Design: regimen Daily Repeat, gender Male, age 6 weeks
Settings: in vivo, po, 300 mg/kg, […], route gavage, dose level Low; for KIDNEY_L / KIDNEY_R / KIDNEY_TOTAL: tissue Kidney; for LIVER: tissue Liver; for A/G / ALP / ALT / AST / BUN / CRE / Ca / Cl / DBIL / GLC / IP / K / LDH / Na / PL / RALB / TBIL / TC / TG / TP / gamma-GTP: tissue Plasma

CC(N)=O [ACETAMIDE] was tested, and the Neu (tissue Blood, time 28 day) was 17.8%, the Plat (tissue Blood, time 28 day) was 111 x10_4/uL and the RBC (tissue Blood, time 28 day) was 737.8 x10_4/ul. The Ret (tissue Blood, time 28 day) was 3.2%, the WBC (tissue Blood, time 28 day) was 165 x10_2/uL and the KIDNEY_L (time 7 day) was 1.1 g. It also gave a KIDNEY_R (time 7 day) of 1.1 g, a KIDNEY_TOTAL (time 7 day) of 2.2 g and a KIDNEY_L (time 14 day) of 1.3 g. For the same compound, the KIDNEY_R (time 14 day) was 1.3 g, the KIDNEY_TOTAL (time 14 day) was 2.6 g and the KIDNEY_L (time 28 day) was 1.5 g. The KIDNEY_R (time 28 day) was 1.5 g, the KIDNEY_TOTAL (time 28 day) was 3 g and the LIVER (time 7 day) was 12.8 g. For the same compound, the LIVER (time 14 day) was 14.1 g, the LIVER (time 28 day) was 17.3 g and the A/G (time 7 day) was 0.9. It also gave an ALP (time 7 day) of 1504 IU/L, an ALT (time 7 day) of 39.4 IU/L and an AST (time 7 day) of 73.4 IU/L. The BUN (time 7 day) was 19.4 mg/dL, the CRE (time 7 day) was 0.2 mg/dL and the Ca (time 7 day) was 10.5 mg/dL. For the same compound, the Cl (time 7 day) was 104.1 meq/L, the DBIL (time 7 day) was 0 mg/dL and the GLC (time 7 day) was 187.4 mg/dL. It also gave an IP (time 7 day) of 6.3 mg/dL, a K (time 7 day) of 4.7 meq/L and an LDH (time 7 day) of 205.8 IU/L. It also gave a Na (time 7 day) of 141.3 meq/L, a PL (time 7 day) of 149.6 mg/dL and an RALB (time 7 day) of 2.8 g/dL. It also gave a TBIL (time 7 day) of 0 mg/dL, a TC (time 7 day) of 72 mg/dL and a TG (time 7 day) of 141.8 mg/dL. It also gave a TP (time 7 day) of 5.8 g/dL, a gamma-GTP (time 7 day) of 0.5 IU/L and an A/G (time 14 day) of 0.9. The ALP (time 14 day) was 1341.2 IU/L, the ALT (time 14 day) was 34.4 IU/L and the AST (time 14 day) was 68.6 IU/L. For the same compound, the BUN (time 14 day) was 17.7 mg/dL, the CRE (time 14 day) was 0.2 mg/dL and the Ca (time 14 day) was 10.4 mg/dL. The Cl (time 14 day) was 104.9 meq/L, the DBIL (time 14 day) was 0 mg/dL and the GLC (time 14 day) was 197.4 mg/dL. It also gave an IP (time 14 day) of 6.3 mg/dL, a K (time 14 day) of 4.4 meq/L and an LDH (time 14 day) of 244 IU/L. It also gave a Na (time 14 day) of 141.1 meq/L, a PL (time 14 day) of 147.4 mg/dL and an RALB (time 14 day) of 2.8 g/dL. It also gave a TBIL (time 14 day) of 0.002 mg/dL, a TC (time 14 day) of 71.2 mg/dL and a TG (time 14 day) of 132 mg/dL. For the same compound, the TP (time 14 day) was 5.8 g/dL, the gamma-GTP (time 14 day) was 0.7 IU/L and the A/G (time 28 day) was 0.9. The ALP (time 28 day) was 1160.4 IU/L, the ALT (time 28 day) was 41.2 IU/L and the AST (time 28 day) was 75.8 IU/L. It also gave a BUN (time 28 day) of 20.1 mg/dL, a CRE (time 28 day) of 0.2 mg/dL and a Ca (time 28 day) of 10.5 mg/dL. It also gave a Cl (time 28 day) of 104.1 meq/L, a DBIL (time 28 day) of 0.004 mg/dL and a GLC (time 28 day) of 211.2 mg/dL. The IP (time 28 day) was 6.3 mg/dL, the K (time 28 day) was 4.3 meq/L and the LDH (time 28 day) was 256 IU/L. The Na (time 28 day) was 141.8 meq/L, the PL (time 28 day) was 158.6 mg/dL and the RALB (time 28 day) was 2.8 g/dL. For the same compound, the TBIL (time 28 day) was 0 mg/dL, the TC (time 28 day) was 77 mg/dL and the TG (time 28 day) was 175.1 mg/dL. For the same compound, the TP (time 28 day) was 6 g/dL and the gamma-GTP (time 28 day) was 0.9 IU/L.
